Results on two compounds are retold here after patent US8361802B2, “Fluorescent ozone sensor” (University of Pittsburgh—Of the Commonwealth System of …, priority 2009, dated 2013).

The test system of data set [1] is Human bronchial epithelial cells (BEAS-2B). As to the kind of experiment: Live-cell imaging of human bronchial epithelial cells. Type of data set: cell-based. The method, then: Human bronchial epithelial cells (BEAS-2B) (American Type Culture Collectin) were grown in LHC-9 medium (Invitrogen) on glass-bottomed Petri dishes (MatTek) precoated with 0.01 mg ml^−1 of human fibronectin (Invitrogen), 0.029 mg ml^−1 Vitrogen 100 (Cohesion) and 0.01 mg ml^−1 bovine serum albumin (Invitrogen) in LHC-9 medium. Immediately prior to imaging, cells were rinsed with Hank's balanced salt solution, which contained calcium and magnesium, and placed inside a temperature-controlled, airtight environmental chamber and maintained at 37° C. and 5% CO2. Images were obtained using a Nikon TE2000E-PFS (Perfect focus system) microscope equipped with a […] oil-immersion objective (Nikon, CFI PlanFluor, NA 1.3) and a fluorescien isothiocyanate longpass filter set (Chroma), a Q-Imaging SRV CCD camera (Q-imaging) and MetaMorph software (Molecular Devices). The motorized XYZ stage used was made by ASA (Eugege). Baseline images were collected before the addition of compound 8 and time-lapsed images obtained at 30 second intervals after the addition of compound 8 (250 nM). Once stage baseline had been achieved, multiple washes were carried out and the media replaced. The cells were then exposed to ozone (˜2.1 ppm) and monitored every 30 seconds for 15 minutes. Ozone was generated from medical grade oxygen (Valley Gas) via a model V1-0 ultraviolet ozonator (OREC) and analyzed with a Dasibi (Glendale) direct-reading instrument. Ozone concentrations were maintained by adjusting both the intensity of the ultraviolet light and the flow rate of oxygen. For each experiment, images were collected from six stages, with a minimum of five cells per position (a minimum of 30 cells per […]).
In another embodiment of the invention, human bronchial epitelial cells were incubated with compound 4 to determine ozone's role in cell biology. […] Based on studies why compound 4 and structurally related compounds are not fluorescent, it is believed that the hydroxymethyl group 4 may have been oxidized to give a more electron-withdrawing group, possible a carboxyl or aldehyde group, and so emit a strong fluorescence signal. To circumvent such an oxidation event, compound 8 was prepared specific for ozone. […] Once a steady baseline signal had been established and maintained for five minutes, ozone gas was generated within the airtight environmental chamber that housed the cell-culture dishes, and fluorescent signals were monitored using live-cell microscopy for approximately 15 minutes.
FIGS. 16A-H are photographs of live-cell imaging of human bronchial epithelial cells in the presence of ozone using compound 8. The left-hand panels (FIGS. A-E) are pseudocolour images that indicate the changes in emission intensity over time, and the right-hand panels show differential interference contrast images of the bronchial epithelial cells. FIG. 16A is before the addition of compound 8 (0 seconds). FIG. 16B illustrates the cell at 107 seconds that is a steady state intensity reached with compound 8 at 250 nM. FIG. 16C illustrates the cell at 326 seconds when ozone flow is started. FIG. 16D illustrates the cell at 536 seconds with the emission intensity increasing. FIG. 16E illustrates the cell at 675 seconds when emission maximum is reached. FIG. 16F illustrates the cell at 820 seconds when the cell starts to die. FIG. 16G illustrates the cell at 969 seconds where the cell emission continues to fall. FIG. 16H illustrates the cell at 1148 seconds when the ozone flow is stopped.

Data set [2] is described as follows: Cytotoxicity against HeLa cells (MTS assay). It counts as cell-based. Conditions: human, 2000 cells/well, 10 nM to 200 μM, read-out: 1050 (cytotoxicity). The method, then: FIG. 4J is the cytotoxicity of compound 8 against HeLa cells seeds at a density of 2000 cells/well is a 96-well plate;
FIG. 4I is the ROS with compound 8. The experiment was performed in duplicate. Error bars were determined from the calculated mean and standard deviation (Prism 5.0a, GraphPad Software, Inc.). FIG. 4J is the cytotoxicity of compound 8 against HeLa cells seeds at a density of 2000 cells/well is a 96-well plate. Concentrations of compound 8 ranged from 10 nM to 200 μM. The assay was performed for 3 days, and the relative cell density was determined by an MTS assay (Promega CellTiter 96® AQueous Non-Radioactive Cell Proliferation Assay).

Data set [3] can be described thus: Fluorescence spectroscopy of the compounds. Type of data set: physicochemical. As for the experimental part:
Fluorescence spectroscopy. Fluorescence spectra were recorded in a 1×1-cm disposable cuvette (VWR; catalog number 58017-880) on a Jobin Yvon FluoroMax-3 spectrometer under the control of a Windows-based PC running FluorEssence software. The samples were excited at 497 nm and the emission intensities were collected at 523 nm. All spectra were corrected for emission intensity using the manufacturer supplied photomultiplier curves.
FIGS. 4A-H illustrate absorbance and fluorescence emission of compounds 4, 7, 8, and S1, wherein fluorescence and emission spectra were measured in 0.1% DMSO in pH 7 buffer. FIG. 4A is absorbance spectrum of compound 4. FIG. 4B is Emission spectrum of compound 4. FIG. 4C is Absorbance spectrum of compound 7. FIG. 4D is Emission spectrum of compound 7. FIG. 4E is Absorbance spectrum of compound 8. FIG. 4F is Emission spectrum of compound 8. FIG. 4G is Absorbance spectrum of compound S1. FIG. 4H is Emission spectrum of compound S1.

Data set [4] in a line: Indigo carmine with various ROS. Conditions: 12.5 μM indigo carmine. As for the experimental part: Indigo carmine with various ROS. The ROS experiments described above were repeated using indigo carmine (Solution B, [Indigo Carmine]final=12.5 μM in all cases) in triplicate. […] FIG. 6A is the Absorbance spectrum of indigo carmine. FIG. 6B is the ROS with indigo carmine. Error bars were determined from the calculated mean and standard deviation (Prism 5.0a, GraphPad Software, Inc.).

Data set [5] in a line: Ozone detection in indoor air on adsorbent paper strips. The method, then:
One embodiment of the present invention can be a badge that contains compound 4 that may be worn by patients so their total ozone exposure can be continuously measured through the day. A proof-of-principle experiment was conducted with compound 4 and compound 1 as a comparative. A solution of compound 4 (500 nmol) in dimethylsulfoxide (DMSO) was absorbed on a piece of adsorbent paper and allowed to dry. The paper strips were stored in an office room that had two photocopiers and two laser printers. After eight hours, the paper strips were removed and placed in a vial that contained oH 7 buffer to elute the dyes. […] The deviation in these values is presumably because of photobleaching and the lack of specificity of compound 1 towards various ROS, including singlet oxygen.
Ozone detection in indoor air. FIG. 10 are photographic illustrations of results of Ozone detection tests in indoor air using the present invention. The top photograph is a Kimwipe® before placing into photocopy room for 8 hours. The bottom photographs are a Kimwipe® in buffer for absorbance and fluorescence measurement, wherein the left photograph is an indigo carmine taken in room light), and the right photograph is compound 4 taken under long-range UV lamp. One adsorbent paper (Kimwipe®) was cut into two 11×9 cm pieces. Solution A (50 μL, 500 nmol of compound 4) was added to one portion of the Kimwipe® and allowed to dry (FIG. 10, top right). Solution B (50 μL, 500 nmol of indigo carmine) was added to the other portion of the Kimwipe® and allowed to dry (FIG. 10, top left). After overnight drying in a laboratory drawer, the paper strips were moved to a poorly ventilated photocopy room (2 photocopiers and 2 laser printers) for 8 hours. The controls remained in the laboratory drawer. After 8 hours, the samples were placed into a scintillation vial, and the dyes were eluted with pH 7 buffer (6.0 mL) (˜5 min) before fluorescence and absorbance measurement. […] FIGS. 3C-D error bars were determined from the calculated mean and standard deviation (Prism 5.0a, GraphPad Software, Inc.).

Regarding `C=CCCOc1cc2oc3cc(=O)c(Cl)cc-3c(-c3ccccc3C)c2cc1Cl` [compound 8], the “fluorescent emissions inside the cells after ozone generation” value in data set [1] (250 nM, ozone ~2.1 ppm, about 15 minutes) is “time-dependent increase in fluorescent emissions occurred inside the cells”. Further, the “time at which emission maximum is reached” value in data set [1] (250 nM, ozone flow started at 326 seconds) is 675 s. Besides, in data set [1] (human bronchial epithelial cells, no external ozone), the “fluorescence inside the cells in the absence of external ozone” value is on record as “remained weakly fluorescent within the cells”. Further, the IC50 at 3 days in data set [2] stood at 43 µM. Also, the “fluorescence of the probe itself” value in data set [3] was “nearly non-fluorescent”.
Take `O=C1/C(=C2\Nc3ccc(S(=O)(=O)[O-])cc3C2=O)Nc2ccc(S(=O)(=O)[O-])cc21.[Na+].[Na+]` [compound 1, indigo carmine]: the “decrease in absorbance at 610 nm with nearly all ROS” value in data set [4] is on record as 11-70%. For the same compound, in data set [5] (500 nmol on adsorbent paper, photocopy room, eight hours), the “decrease in absorbance at 610 nm” value turned out to be 77%. For the same compound, the “consumption of compound 1” value in data set [5] (correlated from decrease in absorbance at 610 nm) was found to be 387 nmol.
